Dmax data for one compound are collected here from patent publication US20260042762A1 (Kymera Therapeutics, Inc., priority 2018, published 2026).

The target in experiment [1] is T1, MerTK (Homo sapiens, UniProt Q12866).
T1 construct: endogenous in cells; host or cells: Jurkat cells
T1 sequence (Q12866 21-999): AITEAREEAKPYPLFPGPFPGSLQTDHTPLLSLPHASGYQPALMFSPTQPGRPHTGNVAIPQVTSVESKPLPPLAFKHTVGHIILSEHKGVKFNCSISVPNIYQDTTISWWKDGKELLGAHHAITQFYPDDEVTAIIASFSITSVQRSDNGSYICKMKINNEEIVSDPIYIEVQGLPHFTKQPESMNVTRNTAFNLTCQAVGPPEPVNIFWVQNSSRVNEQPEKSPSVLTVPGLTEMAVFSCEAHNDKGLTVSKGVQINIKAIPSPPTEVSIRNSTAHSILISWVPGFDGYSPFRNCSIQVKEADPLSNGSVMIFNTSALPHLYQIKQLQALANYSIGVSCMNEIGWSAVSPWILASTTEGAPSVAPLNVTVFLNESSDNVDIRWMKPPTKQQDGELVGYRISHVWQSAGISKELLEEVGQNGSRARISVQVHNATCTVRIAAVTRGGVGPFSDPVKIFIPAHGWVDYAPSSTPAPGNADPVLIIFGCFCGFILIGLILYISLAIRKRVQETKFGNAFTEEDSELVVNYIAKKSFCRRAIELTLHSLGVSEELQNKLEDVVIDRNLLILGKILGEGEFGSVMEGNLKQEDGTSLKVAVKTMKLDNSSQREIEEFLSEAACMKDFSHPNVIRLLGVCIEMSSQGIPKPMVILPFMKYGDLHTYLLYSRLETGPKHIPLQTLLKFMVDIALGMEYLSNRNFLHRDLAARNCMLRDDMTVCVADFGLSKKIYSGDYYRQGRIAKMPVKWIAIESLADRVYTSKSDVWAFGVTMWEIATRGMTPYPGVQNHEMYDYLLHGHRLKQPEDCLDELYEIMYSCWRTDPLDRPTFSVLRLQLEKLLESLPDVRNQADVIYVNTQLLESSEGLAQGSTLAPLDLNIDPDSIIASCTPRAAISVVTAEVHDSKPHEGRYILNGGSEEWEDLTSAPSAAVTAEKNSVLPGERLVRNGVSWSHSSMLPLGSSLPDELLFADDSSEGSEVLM
The experiment in a line: MerTk degradation in Jurkat cells (Western blot). The conditions noted are these: Jurkat, 4 h, 0.001-1 μM, 4 hour-incubation at 37° C., read-out: Jurkat Max % MerTK Degradation. It counts as cell-based. Summed up: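 Jurkat cells treated 4 h at 37 °C with compound at 0.001-1 μM final. RIPA lysates quantified by BCA, then MerTK probed by Western blot against actin loading control with IR-dye secondaries and Odyssey imaging.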
For orientation: Immunoblotting shows a protein as a band on a membrane.

The target in experiment [2] is T2, MerTK (Mus musculus, UniProt Q60805).
T2 construct: endogenous in cells; host or cells: RAW264 cells
T2 sequence (Q60805 19-994): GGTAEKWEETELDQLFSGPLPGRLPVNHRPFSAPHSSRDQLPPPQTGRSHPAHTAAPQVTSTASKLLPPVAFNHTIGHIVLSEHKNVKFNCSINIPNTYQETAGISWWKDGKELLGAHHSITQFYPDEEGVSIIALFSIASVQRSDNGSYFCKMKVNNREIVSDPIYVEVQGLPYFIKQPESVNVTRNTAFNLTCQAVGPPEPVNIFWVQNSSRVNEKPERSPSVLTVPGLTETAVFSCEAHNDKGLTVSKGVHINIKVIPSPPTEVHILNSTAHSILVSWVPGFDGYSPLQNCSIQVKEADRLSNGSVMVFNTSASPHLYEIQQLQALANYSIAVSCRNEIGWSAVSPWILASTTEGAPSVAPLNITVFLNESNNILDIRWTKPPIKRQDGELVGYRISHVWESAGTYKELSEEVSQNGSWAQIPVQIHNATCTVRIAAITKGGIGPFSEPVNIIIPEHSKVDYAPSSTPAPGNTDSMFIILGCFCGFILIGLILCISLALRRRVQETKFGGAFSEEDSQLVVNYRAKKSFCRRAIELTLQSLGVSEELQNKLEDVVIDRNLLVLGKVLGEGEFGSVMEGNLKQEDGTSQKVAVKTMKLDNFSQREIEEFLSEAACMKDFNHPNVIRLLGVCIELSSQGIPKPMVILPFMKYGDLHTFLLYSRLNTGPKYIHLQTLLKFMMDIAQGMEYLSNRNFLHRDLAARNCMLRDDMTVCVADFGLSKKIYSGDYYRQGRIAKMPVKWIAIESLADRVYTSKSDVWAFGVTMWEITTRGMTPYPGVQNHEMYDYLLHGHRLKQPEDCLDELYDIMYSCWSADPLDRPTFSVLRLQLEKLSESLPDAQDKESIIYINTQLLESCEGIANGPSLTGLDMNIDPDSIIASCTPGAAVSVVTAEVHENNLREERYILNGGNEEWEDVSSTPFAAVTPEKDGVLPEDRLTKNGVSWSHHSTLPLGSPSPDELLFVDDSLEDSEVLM
The experiment in a line: MerTK degradation in RAW264 cells (Western blot). The experiment is classed as cell-based. Conditions: RAW264.7, 0.001-1 μM, 4 hour-incubation at 37° C., read-out: RAW264 Max % MerTK Degradation. As for the experimental part:
Compounds were reconstituted in DMSO to make 10 mM stock solutions. RAW264 cells were maintained in DMEM medium containing 10% FBS. Cells were seeded into 6-well plates with 2×10^6 cells per well. 2 μL of diluted compounds were added to cells to the final concentration of 0.001-1 μM. After a 4 hour-incubation at 37° C., cells were washed with DPBS (1×) once. Then RIPA lysis buffer with Halt Protease and Phosphatase Inhibitor Cocktail was added directly to the cells and cells were then incubated on ice for 10 min, then lysate was harvested into 1.5 mL Eppendorf tubes and centrifuged at 14,000 rpm for 10 min at 4° C. and the supernatants were collected for Western blots.
The protein concentration of cell lysates was quantified with Pierce™ BCA Protein Assay Kit. […] BCA working reagents were prepared by mixing BCA reagent A with reagent B in 50: 1 ratio. 200 μL of the BCA working reagents were added to 25 μL of BCA standard or cell lysates in microplate, and mixed thoroughly on a plate shaker for 30 seconds. After incubation at 37° C. for 30 min, the absorbance of samples at 562 nm were measured with EnVision Plate Reader.
Protein lysates were prepared in NuPAGE™ LDS sample buffer and NuPAGE™ sample reducing agent, and incubated at 95° C. for 5 min. […] The proteins were transferred to low fluorescence PVDF membranes using the Trans-Blot Turbo Transfer System. Membranes were then blocked in Odyssey blocking buffer at RT for 1 h followed by primary incubation at 4° C. overnight. The primary antibodies were MerTK goat polyclonal antibody and actin mouse monoclonal antibody. Membranes were washed three times with TBST (1×), and then incubated with IR Dye 800 CW Donkey anti-goat and IR Dye 700 CW Goat anti-mouse secondary antibodies in 1:10,000 dilution at RT for 1 h. The Western blot images were obtained using Odyssey Imaging System.

Where only a bound is given, the exact number is not on record here.

`CCCCNc1ncc2c(-c3ccc(S(=O)(=O)N4CCN(C(=O)CCCCCCCCCCNC(=O)COc5cccc6c5C(=O)N(C5CCC(=O)NC5=O)C6=O)CC4)cc3)nn([C@H]3CC[C@H](O)CC3)c2n1` (stereo partly drawn) [I-28, N-(11-(4-((4-(6-(Butylamino)-1-(trans-4-hydroxycyclohexyl)-1H-pyrazolo[3,4-d]pyrimidin-3-yl)phenyl)sulfonyl)piperazin-1-yl)-11-oxoundecyl)-2-((2-(2,6-dioxopiperidin-3-yl)-1,3-dioxoisoindolin-4-yl)oxy)acetamide]: the Dmax at MerTK [1] and on MerTK [2] was > 50% in each case.
